One block for each molecule: values may come before it. Activity calls are given as the source filed them.
Key:
[1] = molecular target: T1, Alkaline phosphatase, tissue-nonspecific isozyme (Homo sapiens, UniProt P05186); experiment: potency against alkaline phosphatase TNAP – biochemical, luminescent, dose response, SAR follow-up (AID 1056)
T1 sequence (P05186 whole entry): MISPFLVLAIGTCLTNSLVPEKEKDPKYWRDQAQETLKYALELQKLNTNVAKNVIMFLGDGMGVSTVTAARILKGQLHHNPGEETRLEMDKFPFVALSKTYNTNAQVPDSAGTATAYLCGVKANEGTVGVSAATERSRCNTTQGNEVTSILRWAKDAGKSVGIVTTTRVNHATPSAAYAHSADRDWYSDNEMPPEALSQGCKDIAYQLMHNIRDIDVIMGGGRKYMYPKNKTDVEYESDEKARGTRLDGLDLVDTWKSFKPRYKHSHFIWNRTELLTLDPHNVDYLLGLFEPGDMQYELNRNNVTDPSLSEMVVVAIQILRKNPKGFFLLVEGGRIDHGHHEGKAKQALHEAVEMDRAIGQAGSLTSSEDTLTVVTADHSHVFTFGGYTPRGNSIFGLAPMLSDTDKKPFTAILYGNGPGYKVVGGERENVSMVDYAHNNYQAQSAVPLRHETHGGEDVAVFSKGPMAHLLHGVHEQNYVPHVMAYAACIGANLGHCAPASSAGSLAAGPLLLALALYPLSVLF

[2] = molecular target: Glyceraldehyde-3-phosphate dehydrogenase (Homo sapiens, UniProt P04406)
[3] = cells
[4] = system: HEK293; experiment: EBV LMP1 TES2 canonical NF-kB signalling blockers – cell-based, HEK293, luciferase, cherry-pick, dose response (AID 588343); type: functional; conditions: Homo sapiens
[5] = viability of uninfected HEp-2 cells – cell-based, HTS, cytotoxicity control for RSV inhibitor project, dose response (AID 2410); type: functional; conditions: human respiratory syncytial virus
[6] = molecular target: Protein Wnt-3a (Mus musculus, UniProt P27467); experiment: antagonism of Wnt3a pathway luciferase reporter – Wnt-LIGHT cells, luminescence, selectivity assay for Gli-SUFU antagonist project, dose response (AID 651570); type: functional; conditions: read-out: IC50_Mean;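 note: Wnt-LIGHT reporter cells stimulated with conditioned medium from Wnt3a-producing cells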
[7] = intracellular Trypanosoma cruzi inhibitors in host cells – cell-based, plate reader, cherry-pick samples, set 3, dose response (AID 651818); type: functional;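 note: compounds incubated with infected cells for about four days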
[8] = molecular target: T2, High affinity choline transporter 1 (Homo sapiens, UniProt Q9GZV3); experiment: human choline transporter blockers, potency – cell-based, 5-point CRC, membrane potential dye, dose response (AID 504840); type: functional
T2 sequence (Q9GZV3 whole entry): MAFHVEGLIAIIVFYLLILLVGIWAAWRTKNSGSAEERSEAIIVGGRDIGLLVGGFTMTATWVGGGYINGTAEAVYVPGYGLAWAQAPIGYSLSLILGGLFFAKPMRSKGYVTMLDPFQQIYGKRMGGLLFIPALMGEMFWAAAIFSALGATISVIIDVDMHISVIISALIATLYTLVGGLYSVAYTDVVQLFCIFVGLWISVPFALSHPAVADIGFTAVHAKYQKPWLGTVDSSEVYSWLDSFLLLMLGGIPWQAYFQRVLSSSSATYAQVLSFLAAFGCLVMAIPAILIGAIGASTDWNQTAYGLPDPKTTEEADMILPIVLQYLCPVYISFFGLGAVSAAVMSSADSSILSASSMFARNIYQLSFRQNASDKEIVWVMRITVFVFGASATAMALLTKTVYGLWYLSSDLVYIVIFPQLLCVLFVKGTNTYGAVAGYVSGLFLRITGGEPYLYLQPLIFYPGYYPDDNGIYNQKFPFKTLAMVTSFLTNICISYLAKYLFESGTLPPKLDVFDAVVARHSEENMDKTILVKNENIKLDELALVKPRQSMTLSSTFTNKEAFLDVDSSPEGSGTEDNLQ

[9] = molecular target: Glucose-6-phosphate 1-dehydrogenase (Homo sapiens, UniProt P11413); experiment: inhibition of Homo sapiens G6PD, dose series – biochemical, fluorescence, selectivity assay for P. falciparum G6PD inhibitor project, dose response (AID 504792); type: functional
[10] = molecular target: Troponin, cardiac muscle (Homo sapiens, UniProt P19429+P45379+P63316); experiment: Fluorescence-based biochemical high throughput dose response assay for activators of the calcium sensitivity of cardiac Regulated Thin Filaments (RTF). [Related pubchem assays (depositor defined):AID493008, AID493018, AID504382, AID504383]; type: protein-complex assay
[11] = molecular target: Cytochrome P450 2D6 (Homo sapiens, UniProt P10635);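 note: CYP2D6 member of a cytochrome P450 panel assay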
[12] = molecular target: Cytochrome P450 3A4 (Homo sapiens, UniProt P08684);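 note: CYP3A4 tested as one member of a cytochrome P450 panel screen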
[13] = molecular target: T3, Cytochrome P450 1A2 (Homo sapiens, UniProt P05177);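 note: PubChem cytochrome P450 panel assay, CYP1A2 panel member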
T3 sequence (P05177 whole entry): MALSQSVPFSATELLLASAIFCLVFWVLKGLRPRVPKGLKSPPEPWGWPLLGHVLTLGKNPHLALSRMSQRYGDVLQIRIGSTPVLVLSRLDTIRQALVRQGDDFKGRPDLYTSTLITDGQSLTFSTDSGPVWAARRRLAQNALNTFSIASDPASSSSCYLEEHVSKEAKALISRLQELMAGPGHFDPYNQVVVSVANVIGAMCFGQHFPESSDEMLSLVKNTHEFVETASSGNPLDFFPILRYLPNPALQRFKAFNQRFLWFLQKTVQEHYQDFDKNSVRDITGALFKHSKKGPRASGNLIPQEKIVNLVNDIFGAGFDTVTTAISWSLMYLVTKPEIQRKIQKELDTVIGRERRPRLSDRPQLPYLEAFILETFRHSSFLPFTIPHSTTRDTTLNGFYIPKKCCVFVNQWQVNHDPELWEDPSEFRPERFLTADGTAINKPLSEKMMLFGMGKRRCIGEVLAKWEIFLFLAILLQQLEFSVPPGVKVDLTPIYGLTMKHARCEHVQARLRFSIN

[14] = molecular target: Phospholipase A2 (Homo sapiens, UniProt P04054); type: functional;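 note: confirmatory dose-response counterscreen on phospholipase A2, testing hits that came from an ultra-high-throughput screen for ATG4B inhibitors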
[15] = molecular target: T4, Cysteine protease ATG4B (Homo sapiens, UniProt Q9Y4P1); type: functional;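 note: Fluorescence-based dose-response confirmation assay measuring inhibition of ATG4B activity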
T4 sequence (Q9Y4P1 whole entry): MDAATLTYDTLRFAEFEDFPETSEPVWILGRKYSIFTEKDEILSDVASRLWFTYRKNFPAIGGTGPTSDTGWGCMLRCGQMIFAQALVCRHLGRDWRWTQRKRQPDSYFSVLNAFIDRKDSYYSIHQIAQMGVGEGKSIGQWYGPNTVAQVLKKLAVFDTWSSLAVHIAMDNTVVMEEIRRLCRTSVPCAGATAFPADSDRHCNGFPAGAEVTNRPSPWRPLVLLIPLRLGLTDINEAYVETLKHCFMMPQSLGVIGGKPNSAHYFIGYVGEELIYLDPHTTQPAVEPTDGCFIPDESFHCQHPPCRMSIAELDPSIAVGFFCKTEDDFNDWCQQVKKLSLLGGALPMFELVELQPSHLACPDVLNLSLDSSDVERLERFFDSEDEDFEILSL

[16] = molecular target: T5, Heat shock factor protein 1 (Mus musculus, UniProt P38532); experiment: enhancement of HSF1-driven luciferase signal – cell-based, NIH3T3, luminescence, dose retest, confirmation (AID 435004); type: functional;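 note: stress induced by proteasome inhibitor MG132 added 30 min after compound; luciferase reporter driven by HSF1 response element in NIH3T3 cells; actives raise luminescence as potentiators of the MG132 stress response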
T5 sequence (P38532 whole entry): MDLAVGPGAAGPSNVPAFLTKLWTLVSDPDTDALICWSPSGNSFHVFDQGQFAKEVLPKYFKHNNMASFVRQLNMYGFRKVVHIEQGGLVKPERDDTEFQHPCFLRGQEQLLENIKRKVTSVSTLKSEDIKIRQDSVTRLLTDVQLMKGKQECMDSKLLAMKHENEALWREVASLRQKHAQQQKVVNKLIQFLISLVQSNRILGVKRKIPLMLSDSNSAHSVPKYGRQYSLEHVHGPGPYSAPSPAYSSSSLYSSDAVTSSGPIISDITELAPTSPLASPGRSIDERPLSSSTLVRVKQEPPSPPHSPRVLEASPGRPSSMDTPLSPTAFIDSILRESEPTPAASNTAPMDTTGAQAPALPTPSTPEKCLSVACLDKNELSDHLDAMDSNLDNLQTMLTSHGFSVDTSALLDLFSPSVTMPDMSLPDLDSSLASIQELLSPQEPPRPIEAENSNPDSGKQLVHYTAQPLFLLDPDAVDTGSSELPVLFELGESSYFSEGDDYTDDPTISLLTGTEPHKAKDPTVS

Chain of Glucose-6-phosphate 1-dehydrogenase (P11413 whole entry): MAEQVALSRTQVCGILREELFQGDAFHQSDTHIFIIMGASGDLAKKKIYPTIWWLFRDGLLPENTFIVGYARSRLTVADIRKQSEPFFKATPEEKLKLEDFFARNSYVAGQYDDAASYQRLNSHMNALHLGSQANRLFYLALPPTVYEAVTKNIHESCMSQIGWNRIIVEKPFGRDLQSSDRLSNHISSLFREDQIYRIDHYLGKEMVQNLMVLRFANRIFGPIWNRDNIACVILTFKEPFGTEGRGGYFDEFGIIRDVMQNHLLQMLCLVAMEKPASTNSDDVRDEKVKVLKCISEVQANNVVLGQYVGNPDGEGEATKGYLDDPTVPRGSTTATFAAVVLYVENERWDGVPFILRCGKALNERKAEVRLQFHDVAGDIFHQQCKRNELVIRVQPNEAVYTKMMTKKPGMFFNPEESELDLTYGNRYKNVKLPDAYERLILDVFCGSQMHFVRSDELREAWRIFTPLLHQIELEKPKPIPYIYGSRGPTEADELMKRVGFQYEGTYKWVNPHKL
Chain of Cytochrome P450 3A4 (P08684 whole entry): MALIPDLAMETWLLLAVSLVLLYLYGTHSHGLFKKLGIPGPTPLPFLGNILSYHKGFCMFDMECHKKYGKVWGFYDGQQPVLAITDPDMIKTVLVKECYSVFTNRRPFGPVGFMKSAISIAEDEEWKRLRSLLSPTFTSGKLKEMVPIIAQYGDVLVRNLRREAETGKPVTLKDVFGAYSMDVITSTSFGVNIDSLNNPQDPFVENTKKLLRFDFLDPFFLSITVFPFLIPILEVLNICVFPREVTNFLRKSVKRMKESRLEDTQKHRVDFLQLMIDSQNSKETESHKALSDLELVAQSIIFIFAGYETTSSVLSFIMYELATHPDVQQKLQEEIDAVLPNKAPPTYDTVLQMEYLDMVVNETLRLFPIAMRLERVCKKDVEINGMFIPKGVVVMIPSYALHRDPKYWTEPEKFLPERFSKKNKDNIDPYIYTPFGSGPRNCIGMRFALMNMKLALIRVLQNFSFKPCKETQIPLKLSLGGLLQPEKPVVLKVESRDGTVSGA
Chain of Phospholipase A2 (P04054 whole entry): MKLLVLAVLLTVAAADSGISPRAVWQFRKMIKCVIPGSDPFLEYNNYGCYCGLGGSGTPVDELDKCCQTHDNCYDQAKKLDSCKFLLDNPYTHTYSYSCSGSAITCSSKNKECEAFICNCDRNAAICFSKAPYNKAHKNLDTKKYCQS
Chain of Glyceraldehyde-3-phosphate dehydrogenase (P04406 whole entry): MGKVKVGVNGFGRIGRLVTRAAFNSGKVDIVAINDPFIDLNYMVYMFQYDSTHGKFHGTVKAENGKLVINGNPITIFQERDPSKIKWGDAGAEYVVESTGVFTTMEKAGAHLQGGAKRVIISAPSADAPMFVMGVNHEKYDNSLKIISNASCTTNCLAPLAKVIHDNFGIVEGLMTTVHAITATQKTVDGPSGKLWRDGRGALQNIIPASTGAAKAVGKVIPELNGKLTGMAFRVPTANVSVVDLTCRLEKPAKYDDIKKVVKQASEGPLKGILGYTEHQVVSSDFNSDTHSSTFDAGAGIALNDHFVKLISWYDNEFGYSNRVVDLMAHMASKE
Chain of Cytochrome P450 2D6 (P10635 whole entry): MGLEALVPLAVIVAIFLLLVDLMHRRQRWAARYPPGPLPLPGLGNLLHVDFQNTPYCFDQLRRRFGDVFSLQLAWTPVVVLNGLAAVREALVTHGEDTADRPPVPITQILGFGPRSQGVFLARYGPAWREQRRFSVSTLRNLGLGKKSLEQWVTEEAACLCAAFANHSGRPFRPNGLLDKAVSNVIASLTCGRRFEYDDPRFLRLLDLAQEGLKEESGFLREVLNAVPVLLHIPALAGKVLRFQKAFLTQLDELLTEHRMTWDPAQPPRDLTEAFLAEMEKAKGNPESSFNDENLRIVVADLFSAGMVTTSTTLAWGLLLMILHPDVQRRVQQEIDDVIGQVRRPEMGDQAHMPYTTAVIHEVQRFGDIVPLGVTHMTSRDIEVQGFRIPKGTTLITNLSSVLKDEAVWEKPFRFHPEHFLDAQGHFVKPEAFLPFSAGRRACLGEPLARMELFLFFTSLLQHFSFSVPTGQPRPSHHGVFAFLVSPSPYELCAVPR
Chain of Protein Wnt-3a (P27467 whole entry): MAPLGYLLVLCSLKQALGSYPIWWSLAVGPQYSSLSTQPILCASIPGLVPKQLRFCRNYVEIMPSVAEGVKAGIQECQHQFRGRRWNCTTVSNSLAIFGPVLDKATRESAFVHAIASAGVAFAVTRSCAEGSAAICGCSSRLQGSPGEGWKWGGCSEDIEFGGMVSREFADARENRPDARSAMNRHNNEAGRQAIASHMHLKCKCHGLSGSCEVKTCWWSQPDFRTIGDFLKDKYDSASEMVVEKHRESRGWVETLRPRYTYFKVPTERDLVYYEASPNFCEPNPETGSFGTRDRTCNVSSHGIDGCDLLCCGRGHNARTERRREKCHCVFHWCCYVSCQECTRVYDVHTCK

IC50 [1]: > 100 µM (inactive) | IC50 [2]: > 100 µM (not active)
SMILES: COc1ccc(OC)c(NCc2cnc3ccccc3c2)c1

IC50 [6]: 1.7 µM (active)
SMILES: COc1cccc(/C=C/c2ccncc2)c1OC

IC50 [8]: 11.5 µM (active) | IC50 [9]: > 80 µM (inactive)
SMILES: Cc1ccc(-c2csc(NC(=O)c3ccccc3F)c2C(=O)O)cc1

AC50 [11]: 5.01 µM (inconclusive) | AC50 [12]: inconclusive | AC50 [13]: 31.6 µM (inconclusive)
SMILES: COC(=O)C(Cc1ccc(OC(=O)c2ccc(Cl)cc2)cc1)N1Cc2ccccc2C1=O (stereo unspecified)

EC50 [10]: > 71.5 µM (inactive)
SMILES: COc1c(O)cccc1-c1nnn(CCC(=O)OCC(=O)c2ccccc2)n1

IC50 [9]: 12.5 µM (active)
SMILES: Cc1ccc(-c2c(C(=O)N/N=C/c3ccc(C)o3)nnn2-c2nonc2N)cc1

IC50 [14]: 8.13 µM (active) | IC50 [15]: 9.78 µM (active) | EC50 [16]: > 260 µM (inactive)
SMILES: COC(=O)C(C)N(C(=O)c1ccc(C(=O)c2ccccc2)cc1)c1c(C)cccc1C (stereo unspecified)

The remaining lines, values behind:

SMILES: COc1ccc2cc(-c3cc(C(=O)O)c4ccccc4n3)ccc2c1
IC50 [3]: 40.9 µM (active) | AC50 [4]: 1.05 µM (active) | CC50 [5]: 22.5 µM (active)

SMILES: C[C@H]1CN([C@@H](C)CO)C(=O)c2cccc(NC(=O)c3nc4ccccc4s3)c2O[C@@H]1CN(C)S(=O)(=O)c1ccc(Cl)cc1
AC50 [7]: 1.8 µM (active)

SMILES: CCN1CCN(Cc2ccc(NC(=O)c3ccc(C)c(NC(=O)c4nccnc4N)c3)cc2C(F)(F)F)CC1
AC50 [4]: 0.528 µM (active)

SMILES: C[C@@H]1CN([C@@H](C)CO)C(=O)c2cc(NC(=O)Nc3ccc(C(F)(F)F)cc3)ccc2O[C@@H]1CN(C)Cc1ccc(Cl)c(Cl)c1
AC50 [7]: 3.38 µM (active)

SMILES: CN1C(=O)/C(=C/C=C2\SCCN2C)OC1=S
EC50 [10]: 7 µM (active)

SMILES: C[C@H]1CN([C@@H](C)CO)C(=O)Cc2cc(NC(=O)Nc3ccccc3)ccc2O[C@H]1CN(C)Cc1ccc(C(F)(F)F)cc1
AC50 [7]: 3.26 µM (active)

Reference: ChEMBL document CHEMBL1201862, “PubChem BioAssay data set” (2004)
